Test results from patent publication US20070128217A1 (priority 2003, published 2007).

Legend:
[1] = tested on: rabbit serum obtained by immunizing a rabbit with the SARS-CoV strain Frankfurt 1; format: binding; set-up: Binding of a rabbit serum to linear peptides / Binding of a rabbit serum to looped peptides / Rabbit serum linear peptides / Rabbit serum looped peptides / Binding of a rabbit serum to linear peptides of protein N of SARS-CoV Urbani (Rabbit serum linear peptides) / Binding of a rabbit serum to looped/cyclic peptides of protein N of SARS-CoV Urbani (Rabbit serum looped peptides): unit not given here
[2] = tested on: control sera (pooled serum of ten healthy LUMC hospital workers; commercial negative donor pooled serum from the Dutch bloodbank); format: binding, human; set-up: Binding of Control serum LUMC to linear peptides / Binding of Control serum Blood-bank to linear peptides / Binding of Control serum LUMC to looped peptides / Binding of Control Serum Blood-Bank to Looped peptides / Binding of Control serum LUMC to linear peptides of the protein M of SARS-CoV Urbani / Binding of Control serum Blood-bank to linear peptides of the protein M of SARS-CoV Urbani / Binding of Control serum LUMC to looped peptides of the protein M of SARS-CoV Urbani / Binding of Control Serum Blood-Bank to Looped peptides of the protein M of SARS-CoV Urbani: unit not given here
[3] = tested on: antibodies in sera from SARS patients (sera 1a, 1b, 2, 6, 37, 62, London, SARS-yellow, SARS-green); format: binding, human; set-up: Binding of serum 6 to linear peptides of protein X1 of SARS-CoV Urbani / Binding of serum 37 to linear peptides of protein X1 of SARS-CoV Urbani / Binding of serum 6 to looped/cyclic peptide (PEPSCAN-ELISA) / Binding of serum 37 to looped/cyclic peptide (PEPSCAN-ELISA) / Binding of serum 37 to looped/cyclic peptides of protein X1 of SARS-CoV Urbani / Binding of serum 6 to linear peptides of protein X2 / Binding of serum 37 to linear peptides of protein X2 / Binding of serum 37 to looped/cyclic peptides of protein X2 of SARS-CoV Urbani / Binding of serum 6 to linear peptides of protein M of SARS-CoV Urbani / Binding of serum 37 to linear peptides of protein M of SARS-CoV Urbani / Binding of serum 6 to looped/cyclic peptides of protein M of SARS-CoV Urbani / Binding of serum 37 to looped/cyclic peptides of protein M of SARS-CoV Urbani / Binding of serum 6 to linear peptides of protein X3 of SARS-CoV Urbani / Binding of serum 37 to linear peptides of protein X3 of SARS-CoV Urbani / Binding of serum 37 to looped/cyclic peptides of protein X3 of SARS-CoV Urbani / Binding of serum 6 to linear peptides of protein X4 of SARS-CoV Urbani / Binding of serum 37 to linear peptides of protein X4 of SARS-CoV Urbani / Binding of serum 37 to looped/cyclic peptides of protein X4 of SARS-CoV Urbani / Binding of serum 6 to linear peptides of protein X5 of SARS-CoV Urbani / Binding of serum 37 to linear peptides of protein X5 of SARS-CoV Urbani / Binding of serum 37 to looped/cyclic peptides of protein X5 of SARS-CoV Urbani / Binding of serum 6 to linear peptides of protein N of SARS-CoV Urbani / Binding of serum 37 to linear peptides of protein N of SARS-CoV Urbani / Binding of serum 6 to linear peptide (PEPSCAN-ELISA) / Binding of serum 1a to looped/cyclic peptides of protein N of SARS-CoV Urbani / Binding of serum 1b to looped/cyclic peptides of protein N of SARS-CoV Urbani / Binding of serum 2 to looped/cyclic peptides of protein N of SARS-CoV Urbani / Binding of serum 6 to looped/cyclic peptides of protein N of SARS-CoV Urbani / Binding of serum 37 to looped/cyclic peptides of protein N of SARS-CoV Urbani / Binding of serum 62 to looped/cyclic peptides of protein N of SARS-CoV Urbani / Binding of serum London to looped/cyclic peptides of protein N of SARS-CoV Urbani / Binding of serum SARS-green to looped/cyclic peptides of protein N of SARS-CoV Urbani: unit not given here

RGTIVTRPLMESELV was tested, and the “Rabbit serum linear peptides” value [1] was 0.3, the “Rabbit serum looped peptides” value [1] was 0.3 and the “Binding of Control Serum Blood-Bank to Looped peptides of the protein M of SARS-CoV Urbani” value [2] was 0.6. The “Binding of Control serum Blood-bank to linear peptides of the protein M of SARS-CoV Urbani” value [2] was 0.7, the “Binding of Control serum LUMC to linear peptides of the protein M of SARS-CoV Urbani” value [2] was 0.4 and the “Binding of Control serum LUMC to looped peptides of the protein M of SARS-CoV Urbani” value [2] was 0.8. The “Binding of serum 1a to linear peptides of protein M of SARS-CoV Urbani” value [3] was 0.9, the “Binding of serum 1b to linear peptides of protein M of SARS-CoV Urbani” value [3] was 0.6 and the “Binding of serum 2 to linear peptides of protein M of SARS-CoV Urbani” value [3] was 0.6. For the same sequence, the “Binding of serum 6 to linear peptides of protein M of SARS-CoV Urbani” value [3] was 0.4, the “Binding of serum 37 to linear peptides of protein M of SARS-CoV Urbani” value [3] was 0.9 and the “Binding of serum 62 to linear peptides of protein M of SARS-CoV Urbani” value [3] was 0.9. For the same sequence, the “Binding of serum London to linear peptides of protein M of SARS-CoV Urbani” value [3] was 0.3, the “Binding of serum SARS-green to linear peptides of protein M of SARS-CoV Urbani” value [3] was 0.3 and the “Binding of serum SARS-yellow to linear peptides of protein M of SARS-CoV Urbani” value [3] was 0.1. For the same sequence, the “Recognition of the peptide by sera of SARS-CoV infected individuals, and form (linear, looped/cyclic) in which it is recognized” value [3] was “recognized in looped/cyclic form”.
RIAIWNLDVIISSIV was tested, and the “Rabbit serum linear peptides” value [1] was 0.3, the “Rabbit serum looped peptides” value [1] was 0.4 and the “Binding of Control Serum Blood-Bank to Looped peptides of the protein X3 of SARS-CoV Urbani” value [2] was 0.9. For the same sequence, the “Binding of Control serum Blood-bank to linear peptides of the protein X3 of SARS-CoV Urbani” value [2] was 0.7, the “Binding of Control serum LUMC to linear peptides of the protein X3 of SARS-CoV Urbani” value [2] was 0.6 and the “Binding of Control serum LUMC to looped peptides of the protein X3 of SARS-CoV Urbani” value [2] was 0.8. The “Binding of serum 1a to linear peptides of protein X3 of SARS-CoV Urbani” value [3] was 0.7, the “Binding of serum 1a to looped/cyclic peptides of protein X3 of SARS-CoV Urbani” value [3] was 0.8 and the “Binding of serum 1b to linear peptides of protein X3 of SARS-CoV Urbani” value [3] was 0.3. The “Binding of serum 1b to looped/cyclic peptides of protein X3 of SARS-CoV Urbani” value [3] was 0.5, the “Binding of serum 2 to linear peptides of protein X3 of SARS-CoV Urbani” value [3] was 0.6 and the “Binding of serum 2 to looped/cyclic peptides of protein X3 of SARS-CoV Urbani” value [3] was 0.8. The “Binding of serum 6 to linear peptides of protein X3 of SARS-CoV Urbani” value [3] was 0.5, the “Binding of serum 6 to looped/cyclic peptides of protein X3 of SARS-CoV Urbani” value [3] was 0.4 and the “Binding of serum 37 to linear peptides of protein X3 of SARS-CoV Urbani” value [3] was 0.5. For the same sequence, the “Binding of serum 37 to looped/cyclic peptides of protein X3 of SARS-CoV Urbani” value [3] was 0.6, the “Binding of serum 62 to linear peptides of protein X3 of SARS-CoV Urbani” value [3] was 0.7 and the “Binding of serum 62 to looped/cyclic peptides of protein X3 of SARS-CoV Urbani” value [3] was 0.7. For the same sequence, the “Binding of serum London to linear peptides of protein X3 of SARS-CoV Urbani” value [3] was 0.7, the “Binding of serum London to looped/cyclic peptides of protein X3 of SARS-CoV Urbani” value [3] was 0.2 and the “Binding of serum SARS-green to linear peptides of protein X3 of SARS-CoV Urbani” value [3] was 0.3. For the same sequence, the “Binding of serum SARS-green to looped/cyclic peptides of protein X3 of SARS-CoV Urbani” value [3] was 0.3, the “Binding of serum SARS-yellow to linear peptides of protein X3 of SARS-CoV Urbani” value [3] was 0.4 and the “Binding of serum SARS-yellow to looped/cyclic peptides of protein X3 of SARS-CoV Urbani” value [3] was 1.0.
With RIGNYKLNTDHAGSN the “Rabbit serum linear peptides” value [1] was 0.1, the “Rabbit serum looped peptides” value [1] was 0.2 and the “Binding of Control Serum Blood-Bank to Looped peptides of the protein M of SARS-CoV Urbani” value [2] was 0.8. For the same sequence, the “Binding of Control serum Blood-bank to linear peptides of the protein M of SARS-CoV Urbani” value [2] was 0.9, the “Binding of Control serum LUMC to linear peptides of the protein M of SARS-CoV Urbani” value [2] was 0.6 and the “Binding of Control serum LUMC to looped peptides of the protein M of SARS-CoV Urbani” value [2] was 0.8. For the same sequence, the “Binding of serum 1a to linear peptides of protein M of SARS-CoV Urbani” value [3] was 0.7, the “Binding of serum 1a to looped/cyclic peptides of protein M of SARS-CoV Urbani” value [3] was 0.6 and the “Binding of serum 1b to linear peptides of protein M of SARS-CoV Urbani” value [3] was 0.5. For the same sequence, the “Binding of serum 1b to looped/cyclic peptides of protein M of SARS-CoV Urbani” value [3] was 0.5, the “Binding of serum 2 to linear peptides of protein M of SARS-CoV Urbani” value [3] was 0.6 and the “Binding of serum 2 to looped/cyclic peptides of protein M of SARS-CoV Urbani” value [3] was 0.5. For the same sequence, the “Binding of serum 6 to linear peptides of protein M of SARS-CoV Urbani” value [3] was 0.3, the “Binding of serum 6 to looped/cyclic peptides of protein M of SARS-CoV Urbani” value [3] was 0.7 and the “Binding of serum 37 to linear peptides of protein M of SARS-CoV Urbani” value [3] was 0.5. The “Binding of serum 37 to looped/cyclic peptides of protein M of SARS-CoV Urbani” value [3] was 0.6, the “Binding of serum 62 to linear peptides of protein M of SARS-CoV Urbani” value [3] was 0.6 and the “Binding of serum 62 to looped/cyclic peptides of protein M of SARS-CoV Urbani” value [3] was 0.6. The “Binding of serum London to linear peptides of protein M of SARS-CoV Urbani” value [3] was 0.6, the “Binding of serum London to looped/cyclic peptides of protein M of SARS-CoV Urbani” value [3] was 0.4 and the “Binding of serum SARS-green to linear peptides of protein M of SARS-CoV Urbani” value [3] was 0.6. For the same sequence, the “Binding of serum SARS-green to looped/cyclic peptides of protein M of SARS-CoV Urbani” value [3] was 0.2, the “Binding of serum SARS-yellow to linear peptides of protein M of SARS-CoV Urbani” value [3] was 0.1 and the “Binding of serum SARS-yellow to looped/cyclic peptides of protein M of SARS-CoV Urbani” value [3] was 0.6.
RLLACLCKHKKVSTN was tested, and the “Binding of a rabbit serum to linear peptides” value [1] was 0.3, the “Binding of a rabbit serum to looped peptides” value [1] was 0.4 and the “Binding of Control Serum Blood-Bank to Looped peptides” value [2] was 0.3. For the same sequence, the “Binding of Control serum Blood-bank to linear peptides” value [2] was 0.9, the “Binding of Control serum LUMC to linear peptides” value [2] was 0.7 and the “Binding of Control serum LUMC to looped peptides” value [2] was 0.4. For the same sequence, the “Binding of serum 1a to looped/cyclic peptides of protein X2 of SARS-CoV Urbani” value [3] was 0.3, the “Binding of serum 1b to looped/cyclic peptides of protein X2 of SARS-CoV Urbani” value [3] was 0.2 and the “Binding of serum 2 to looped/cyclic peptides of protein X2 of SARS-CoV Urbani” value [3] was 0.3. For the same sequence, the “Binding of serum 6 to looped/cyclic peptides of protein X2 of SARS-CoV Urbani” value [3] was 0.3, the “Binding of serum 37 to looped/cyclic peptides of protein X2 of SARS-CoV Urbani” value [3] was 0.3 and the “Binding of serum 62 to looped/cyclic peptides of protein X2 of SARS-CoV Urbani” value [3] was 0.5. For the same sequence, the “Binding of serum London to looped/cyclic peptides of protein X2 of SARS-CoV Urbani” value [3] was 0.2, the “Binding of serum SARS-green to looped/cyclic peptides of protein X2 of SARS-CoV Urbani” value [3] was 0.3 and the “Binding of serum SARS-yellow to looped/cyclic peptides of protein X2 of SARS-CoV Urbani” value [3] was 0.4. The “Recognition of the peptide by sera of SARS-CoV infected individuals, and form (linear, looped/cyclic) in which it is recognized” value [3] was “recognized in linear form”.
For RNRFLYIIKLVFLWL, the “Rabbit serum linear peptides” value [1] was 0.4, the “Rabbit serum looped peptides” value [1] was 0.5 and the “Binding of Control Serum Blood-Bank to Looped peptides of the protein M of SARS-CoV Urbani” value [2] was 0.7. For the same sequence, the “Binding of Control serum Blood-bank to linear peptides of the protein M of SARS-CoV Urbani” value [2] was 0.6, the “Binding of Control serum LUMC to linear peptides of the protein M of SARS-CoV Urbani” value [2] was 0.7 and the “Binding of Control serum LUMC to looped peptides of the protein M of SARS-CoV Urbani” value [2] was 0.8. For the same sequence, the “Binding of serum 1a to linear peptides of protein M of SARS-CoV Urbani” value [3] was 0.6, the “Binding of serum 1b to linear peptides of protein M of SARS-CoV Urbani” value [3] was 0.5 and the “Binding of serum 2 to linear peptides of protein M of SARS-CoV Urbani” value [3] was 0.4. For the same sequence, the “Binding of serum 6 to linear peptides of protein M of SARS-CoV Urbani” value [3] was 0.5, the “Binding of serum 37 to linear peptides of protein M of SARS-CoV Urbani” value [3] was 0.4 and the “Binding of serum 62 to linear peptides of protein M of SARS-CoV Urbani” value [3] was 0.5. The “Binding of serum London to linear peptides of protein M of SARS-CoV Urbani” value [3] was 0.3, the “Binding of serum SARS-green to linear peptides of protein M of SARS-CoV Urbani” value [3] was 0.4 and the “Binding of serum SARS-yellow to linear peptides of protein M of SARS-CoV Urbani” value [3] was 0.3. The “Recognition of the peptide by sera of SARS-CoV infected individuals, and form (linear, looped/cyclic) in which it is recognized” value [3] was “recognized in looped/cyclic form”.
